From ChEMBL document CHEMBL1154512, “PA-824 kills nonreplicating Mycobacterium tuberculosis by intracellular NO release” (2008)
Activity calls are given as the source filed them. No cut-off for these calls is given here.

Test system: Mycobacterium tuberculosis
Assay: Bactericidal activity against Mycobacterium tuberculosis prcAB/tetR mutant after 3 days under anaerobic condition by serial dilution method
Assay type: functional, organism-based

O=[N+]([O-])c1cn2c(n1)OC[C@@H](OCc1ccc(OC(F)(F)F)cc1)C2 [PRETOMANID]
Activity: Active
